Results on 28 compounds are retold here after ChEMBL document CHEMBL2169839 (J Med Chem, 2012).

Substitutions are numbered along the chain they refer to. Bounds are passed on as bounds.

Assay [1] addresses T1, Aldo-keto reductase family 1 member C4 (Homo sapiens, UniProt P17516).
T1 sequence (P17516 whole entry): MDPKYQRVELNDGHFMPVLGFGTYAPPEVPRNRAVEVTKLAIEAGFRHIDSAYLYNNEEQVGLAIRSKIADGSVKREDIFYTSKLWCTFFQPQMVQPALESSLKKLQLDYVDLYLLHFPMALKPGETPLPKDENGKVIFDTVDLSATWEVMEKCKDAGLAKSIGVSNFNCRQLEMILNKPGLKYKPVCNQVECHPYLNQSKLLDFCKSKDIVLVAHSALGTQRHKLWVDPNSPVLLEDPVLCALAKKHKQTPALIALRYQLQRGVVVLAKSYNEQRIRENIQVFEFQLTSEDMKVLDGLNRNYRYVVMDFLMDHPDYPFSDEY

The target in assay [2] is T2, Aldo-keto reductase family 1 member C2 (Homo sapiens, UniProt P52895).
T2 sequence (P52895 whole entry): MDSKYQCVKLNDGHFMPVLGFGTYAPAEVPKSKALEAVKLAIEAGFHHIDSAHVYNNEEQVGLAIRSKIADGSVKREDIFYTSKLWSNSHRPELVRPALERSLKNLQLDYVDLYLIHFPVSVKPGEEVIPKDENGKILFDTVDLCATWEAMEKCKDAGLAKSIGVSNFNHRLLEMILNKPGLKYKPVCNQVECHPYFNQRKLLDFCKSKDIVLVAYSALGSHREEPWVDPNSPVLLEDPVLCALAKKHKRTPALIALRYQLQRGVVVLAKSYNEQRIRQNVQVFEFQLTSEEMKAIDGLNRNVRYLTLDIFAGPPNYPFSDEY

Assay [3] addresses T3, Aldo-keto reductase family 1 member C1 (Homo sapiens, UniProt Q04828).
T3 sequence (Q04828 whole entry): T2 sequence (P52895 whole entry) with V38T, H47R, V54L, S87C, M151V, H170R, L172Q

The target of assay [4] is T4, Aldo-keto reductase family 1 member C3 (Homo sapiens, UniProt P42330).
T4 sequence (P42330 whole entry): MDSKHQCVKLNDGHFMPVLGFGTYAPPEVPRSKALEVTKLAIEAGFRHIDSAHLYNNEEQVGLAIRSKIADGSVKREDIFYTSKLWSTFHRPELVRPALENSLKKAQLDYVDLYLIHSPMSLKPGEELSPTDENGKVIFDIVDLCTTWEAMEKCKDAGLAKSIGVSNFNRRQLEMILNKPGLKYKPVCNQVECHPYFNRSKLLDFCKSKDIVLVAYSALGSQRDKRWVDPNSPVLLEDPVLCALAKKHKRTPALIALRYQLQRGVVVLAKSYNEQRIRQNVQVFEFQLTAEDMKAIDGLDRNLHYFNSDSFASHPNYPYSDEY
The assay can be described thus: biochemical.
Description: Inhibition of human recombinant N-terminal His6-tagged AKR1C3 expressed in Escherichia coli BL21(DE3) cells using 8-Acetyl-2,3,5,6-tetrahydro-1H,4H-11-oxa-3a-aza-benzo[de]anthracen-10-one as substrate after 1 hr by fluorimetric analysis

For assay [5], the target named is T4, Aldo-keto reductase family 1 member C3. The assay can be described thus: Inhibition of AKR1C3 overexpressed in human HCT116 cells assessed as inhibition of PR-104A conversion to hydroxylamine after 2 hrs by LC-MS/MS analysis.
For assay [6], the target named is T1, Aldo-keto reductase family 1 member C4. The assay can be described thus: Inhibition of human recombinant AKR1C4 expressed in Escherichia coli BL21(DE3) using phenanthrenequinone as substrate by spectrophotometric analysis.
Assay [7] deals with T4, Aldo-keto reductase family 1 member C3.
Assay [8] concerns the target T3, Aldo-keto reductase family 1 member C1. The assay can be described thus: Inhibition of human recombinant AKR1C1 expressed in Escherichia coli BL21(DE3) using phenanthrenequinone as substrate by spectrophotometric analysis.

For orientation: IC50 means the concentration needed to halve the response being measured. For orientation: Ki means a dissociation constant, usually derived from enzyme kinetics or from competition with a known ligand.

Consider `O=C(O)c1cccc(S(=O)(=O)NCCc2ccc(Cl)cc2)c1`, for which the IC50 was more than 30000 nM in assay [1]; more than 30000 nM in assay [2]; more than 30000 nM in assay [3]; 140 nM in assay [4]; more than 1000 nM in assay [5].
Turning to `O=C(O)c1cccc(S(=O)(=O)N2CCc3ccccc32)c1`, the IC50 in assay [1] is more than 30000 nM; in assay [2] it was more than 30000 nM; in assay [3], 6610 nM; in assay [4], 210 nM; in assay [5], more than 1000 nM.
`N#Cc1ccc2c(c1)CN(S(=O)(=O)c1cccc(C(=O)O)c1)CC2`: the IC50 is more than 30000 nM in assay [1]; more than 30000 nM in assay [2]; more than 30000 nM in assay [3]; 34 nM in assay [4]; 266 nM in assay [5].
On to `O=C(O)c1cccc(S(=O)(=O)N2CCc3c(O)cccc3C2)c1`, for which the IC50 was more than 30000 nM in assay [1]; more than 30000 nM in assay [2]; 25600 nM in assay [3]; 16 nM in assay [4]; 453 nM in assay [5].
For `O=C(O)c1cccc(S(=O)(=O)N2CCc3ccc(Cl)cc3C2)c1`, the IC50 in assay [1] was more than 30000 nM; in assay [2] it was more than 30000 nM; in assay [3] it was more than 30000 nM; in assay [4], 20 nM; in assay [5] it was more than 1000 nM.
For `O=C(O)c1cccc(S(=O)(=O)N2CC=CCC2)c1`, the IC50 is more than 30000 nM in assay [1]; more than 30000 nM in assay [2]; more than 30000 nM in assay [3]; 390 nM in assay [4]; more than 1000 nM in assay [5].
As for `Nc1cccc2c1CCN(S(=O)(=O)c1cccc(C(=O)O)c1)C2`, the 50% inhibitory concentration (IC50) in assay [1] was more than 30000 nM; in assay [2], more than 30000 nM; in assay [3], more than 30000 nM; in assay [4], 53 nM; in assay [5] it was 193 nM.
Consider `O=C(O)C(=O)Nc1cccc(S(=O)(=O)N2CCc3ccccc3C2)c1`, for which the half-inhibitory concentration (IC50) is more than 30000 nM in assay [1]; more than 30000 nM in assay [2]; more than 30000 nM in assay [3]; 62 nM in assay [4]; more than 1000 nM in assay [5].
As to `O=C(O)c1cccc(S(=O)(=O)N2CCc3ccc(Br)cc3C2)c1`, the IC50 in assay [1] is more than 30000 nM; in assay [2], more than 30000 nM; in assay [3], more than 30000 nM; in assay [4] it was 12 nM; in assay [5] it was 20 nM.
As for `O=C(O)c1cccc(S(=O)(=O)N2CCc3ccc(I)cc3C2)c1`, the IC50 is more than 30000 nM in assay [1]; more than 30000 nM in assay [2]; more than 30000 nM in assay [3]; 14 nM in assay [4]; 45 nM in assay [5].
With `O=C(O)c1cccc(S(=O)(=O)N2CCc3ccc(F)cc3C2)c1`, the IC50 in assay [1] was more than 30000 nM; in assay [2] it was more than 30000 nM; in assay [3], more than 30000 nM; in assay [4], 21 nM; in assay [5], 24 nM.
In the case of `O=C(O)c1cccc(S(=O)(=O)N2CCc3cccc(Cl)c3C2)c1`, the IC50 in assay [1] was more than 30000 nM; in assay [2] it was 12100 nM; in assay [3], 740 nM; in assay [4] it was 19 nM; in assay [5], 28 nM.
Taken in the same sequence, the figures for `O=C(O)c1cccc(S(=O)(=O)N2CCc3c(Cl)cccc3C2)c1` were more than 30000 nM, 9320 nM, more than 30000 nM, 11 nM and 16 nM.
Taken in the same sequence, the figures for `CC1Cc2ccccc2CN1S(=O)(=O)c1cccc(C(=O)O)c1` (stereo not drawn) were more than 30000 nM, more than 30000 nM, more than 30000 nM, 8.6 nM and 176 nM.
In the case of `CNC(=O)c1cccc(S(=O)(=O)N2CCc3ccccc3C2)c1`, the IC50 in assay [1] is more than 30000 nM; in assay [2] it was more than 30000 nM; in assay [3], more than 30000 nM; in assay [4], 50 nM; in assay [5], 13 nM.
As for `O=C(c1cccc(S(=O)(=O)N2CCc3ccccc3C2)c1)N1CCOCC1`, the IC50 is more than 30000 nM in assay [1]; more than 30000 nM in assay [2]; more than 30000 nM in assay [3]; 78 nM in assay [4]; 13 nM in assay [5].
In the case of `COc1cc2c(cc1OC)CN(S(=O)(=O)c1cccc(C(=O)O)c1)CC2`, the IC50 was more than 30000 nM in assay [1]; more than 30000 nM in assay [2]; more than 30000 nM in assay [3]; 160 nM in assay [4]; more than 1000 nM in assay [5].
Turning to `O=C1CCCN1c1ccc(S(=O)(=O)N2CCc3ccccc3C2)cc1`, the IC50 in assay [1] is more than 30000 nM; in assay [2], more than 30000 nM; in assay [3], more than 30000 nM; in assay [4], 42 nM; in assay [5], 24 nM.
With `O=C(O)c1cccc(S(=O)(=O)N2CCc3c(I)cccc3C2)c1`, the IC50 was more than 30000 nM in assay [1]; more than 30000 nM in assay [2]; more than 30000 nM in assay [3]; 14 nM in assay [4]; 20 nM in assay [5].
Turning to `O=C(O)c1cccc(S(=O)(=O)NCCc2ccccc2)c1`, the IC50 in assay [1] is more than 30000 nM; in assay [2] it was more than 30000 nM; in assay [3] it was more than 30000 nM; in assay [4], 220 nM; in assay [5], more than 1000 nM.
On to `COc1cccc2c1CCN(S(=O)(=O)c1cccc(C(=O)O)c1)C2`, for which the IC50 is more than 30000 nM in assay [1]; more than 30000 nM in assay [2]; more than 30000 nM in assay [3]; 16 nM in assay [4]; 39 nM in assay [5].
Take `O=C(O)c1cccc(S(=O)(=O)NCCc2cccc(Cl)c2)c1`: the half-maximal inhibitory concentration (IC50) in assay [1] is more than 30000 nM; in assay [2], more than 30000 nM; in assay [3], more than 30000 nM; in assay [4] it was 210 nM; in assay [5], more than 1000 nM.
Take `O=C(O)[C@H]1CCCN(S(=O)(=O)c2ccc3ccccc3c2)C1`: the IC50 in assay [1] is more than 3000 nM; in assay [2], more than 3000 nM; in assay [3] it was more than 30000 nM; in assay [4], 400 nM; in assay [5] it was more than 1000 nM.
For the compound `CC/C=C\C[C@H]1C(=O)CC[C@@H]1CC(=O)O` [JASMONIC ACID], the Ki worked out at 37000 nM in assay [6], 162000 nM in assay [7] and 106000 nM in assay [8].
On to `O=C(O)c1cccc(S(=O)(=O)N2CCc3c(cccc3[N+](=O)[O-])C2)c1`, for which the IC50 is more than 30000 nM in assay [1]; more than 30000 nM in assay [2]; 24600 nM in assay [3]; 8.9 nM in assay [4]; 29 nM in assay [5].
With `COc1ccc2c(c1)CCN(S(=O)(=O)c1cccc(C(=O)O)c1)C2`, the IC50 was more than 30000 nM in assay [1]; more than 30000 nM in assay [2]; more than 30000 nM in assay [3]; 38 nM in assay [4]; 390 nM in assay [5].
For `O=C(O)c1cccc(S(=O)(=O)N2CCc3cc(Br)ccc3C2)c1`, the half-maximal inhibitory concentration (IC50) in assay [1] was more than 30000 nM; in assay [2], more than 30000 nM; in assay [3] it was more than 30000 nM; in assay [4], 6.1 nM; in assay [5], 12 nM.
With `O=C(O)c1cccc(S(=O)(=O)N2CCc3cc(Cl)ccc3C2)c1`, the half-maximal inhibitory concentration (IC50) in assay [1] is more than 30000 nM; in assay [2], more than 30000 nM; in assay [3] it was 7480 nM; in assay [4], 8.7 nM; in assay [5], 39 nM.
